Test results published in US9085555B2, “Complement pathway modulators and uses thereof” (priority 2011, dated 2015).
Where a name gives a salt, the structure may show the parent alone.

Biological target: Factor D (Homo sapiens (Human), UniProt P00746)
Experiment: biochemical
Type: biochemical
Conditions: read-out: IC50

Factor D, sequence (P00746 26-253): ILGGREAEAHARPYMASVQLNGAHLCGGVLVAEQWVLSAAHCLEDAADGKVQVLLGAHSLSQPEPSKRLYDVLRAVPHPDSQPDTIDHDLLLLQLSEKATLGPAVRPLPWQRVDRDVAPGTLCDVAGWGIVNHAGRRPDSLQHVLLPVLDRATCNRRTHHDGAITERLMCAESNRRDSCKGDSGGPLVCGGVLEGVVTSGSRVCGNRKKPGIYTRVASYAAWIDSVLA

| Compound | IC50 [nM] |
| --- | --- |
| CO[C@H]1[C@@H](C(=O)N[C@@H](C)c2cccc(Cl)c2F)N(C(=O)Cn2cc(C(C)=O)c3ccccc32)C[C@@H]1F [Example 571, (2S,3S,4S)-1-[2-(3-Acetyl-indol-1-yl)-acetyl]-4-fluoro-3-methoxy-pyrrolidine-2-carboxylic acid [(S)-1-(3-chloro-2-fluoro-phenyl)-ethyl]-amide] | 99 |
| [N-]=[N+]=NC[C@H]1CC[C@@H](C(=O)Nc2cccc(OC(F)(F)F)c2)N1C(=O)Nc1cn(C(N)=O)c2ccccc12 [Example 179, (2S,5R)-5-azidomethyl-pyrrolidine-1,2-dicarboxylic acid 1-[(1-carbamoyl-1H-indol-3-yl)-amide]2-[(3-trifluoromethoxy-phenyl)-amide]] | 400 |
| (1R,3S,5R)-2-[2-(3-Acetyl-6- amino-pyrrolo[2,3-b]pyridin-1- yl)-acetyl]-2-aza-bicyclo [3.1.0]hexane-3-carboxylic acid 3-chloro-2-fluoro- benzylamide [Example 676] | 11 |
| COC(=O)c1ccc2c(C(C)=O)nn(CC(=O)N3[C@@H]4C[C@@H]4C[C@H]3C(=O)Nc3cccc(OC(F)(F)F)c3F)c2c1 [Example 710, Methyl 3-acetyl-1-(2-((1R,3S,5R)-3-(2-fluoro-3-(trifluoromethoxy)phenylcarbamoyl)-2-azabicyclo [3.1.0]hexan-2-yl)-2-oxoethyl)-1H-indazole-6-carboxylate] | 52 |
| CC(C)(C)OC(=O)Cc1ccc2c(NC(=O)N3[C@@H]4C[C@@H]4C[C@H]3C(=O)NCc3cccc(Cl)c3F)cn(C(N)=O)c2c1 [Example 127, (1-Carbamoyl-3-{[(1R,3S,5R)-3-(3-chloro-2-fluoro-benzylcarbamoyl)-2-aza-bicyclo[3.1.0]hexane-2-carbonyl]-amino}-1H-indol-6-yl)-acetic acid tert-butyl ester] | 3 |
| CNC(=O)n1cc(NC(=O)N2CCC[C@H]2C(=O)Nc2cccc(OC(F)(F)F)c2)c2ccccc21 [Example 282, (S)-Pyrrolidine-1,2-dicarboxylic acid 1-[(1-methylcarbamoyl-1H-indol-3-yl)-amide] 2-[(3-trifluoromethoxy-phenyl)-amide]] | 3680 |
| CC[C@H](C)[C@H](NC(=O)[C@@H]1C[C@H](N)CN1C(=O)Nc1cn(C(N)=O)c2ccccc12)C(=O)OC [Example 92, (2S,3S)-2-{[(2S,4S)-4-Amino-1-(1-carbamoyl-1H-indol-3-ylcarbamoyl)-pyrrolidine-2-carbonyl]-amino}-3-methyl-pentanoic acid methyl ester] | 8650 |
| CO[C@H]1[C@@H](C(=O)Nc2cccc(OC(F)(F)F)c2F)N(C(=O)Cn2nc(C(N)=O)c3cc(C)ncc32)C[C@@H]1F [Example 636, 1-{2-[(2S,3S,4S)-4-Fluoro-2-(2-fluoro-3-trifluoromethoxy-phenylcarbamoyl)-3-methoxy-pyrrolidin-1-yl]-2-oxo-ethyl}-5-methyl-1H-pyrazolo[3,4-c]pyridine-3-carboxylic acid amide triflate] | 13 |
| CO[C@H]1[C@@H](C(=O)NCc2cccc(Cl)c2F)N(C(=O)Cn2nc(C(C)=O)c3ccccc32)C[C@@H]1F [Example 680, (2S,3S,4S)-1-[2-(3-Acetyl-indazol-1-yl)-acetyl]-4-fluoro-3-methoxy-pyrrolidine-2-carboxylic acid 3-chloro-2-fluoro-benzylamide] | 16 |
| Cc1cc2c(C(N)=O)nn(CC(=O)N3[C@@H]4C[C@@H]4C[C@H]3C(=O)Nc3cccc(OC(F)(F)F)c3F)c2c[n+]1[O-] [Example 726] | 169 |
| NC(=O)c1nn(CC(=O)N2[C@H](C(=O)Nc3cccc(Br)c3F)C[C@@]3(CO)C[C@@H]23)c2ccccc12 [Example 759, 1-{2-[(1R,3S,5S)-3-(3-Bromo-2-fluoro-phenylcarbamoyl)-5-hydroxymethyl-2-aza-bicyclo[3.1.0]hex-2-yl]-2-oxo-ethyl}-1H-indazole-3-carboxylic acid amide] | 9 |
| NC(=O)n1cc(NC(=O)N2[C@@H]3C[C@@H]3C[C@H]2C(=O)NCc2cccc(Cl)c2F)c2cc(O)ccc21 [Example 371, (1R,3S,5R)-2-aza-bicyclo[3.1.0]hexane-2,3-dicarboxylic acid 2-[(1-carbamoyl-5-hydroxy-1H-indol-3-yl)-amide]3-(3-chloro-2-fluoro-benzylamide)] | 3 |
| NC(=O)c1nn(CC(=O)N2[C@@H]3C[C@@H]3C[C@H]2C(=O)Nc2cccc(Br)c2F)c2cnccc12 [Example 668, 1-{2-[(1R,3S,5R)-3-(3-Bromo-2-fluoro-phenylcarbamoyl)-2-aza-bicyclo[3.1.0]hex-2-yl]-2-oxo-ethyl}-1H-pyrazolo[3,4-c]pyridine-3-carboxylic acid amide] | 19 |
| C[C@@H](NC(=O)[C@@H]1C[C@H]2C[C@H]2N1C(=O)Cn1nc(C(N)=O)c2cc[n+]([O-])cc21)c1cccc(Cl)c1F [Example 706, 3-Carbamoyl-1-(2-((1R,3S,5R)-3-((R)-1-(3-chloro-2-fluorophenyl)ethyl-carbamoyl)-2-azabicyclo[3.1.0]hexan-2-yl)-2-oxoethyl)-1H-pyrazolo[3,4-c]pyridine 6-oxide] | 45 |
| CC(=O)n1cc(NC(=O)N2[C@H](C(=O)NCc3cccc(Cl)c3F)C[C@@]3(CO)C[C@@H]23)c2ccccc21 [Example 275, (1R,3S,5S)-5-Hydroxymethyl-2-aza-bicyclo[3.1.0]hexane-2,3-dicarboxylic acid 2-[(1-acetyl-1H-indol-3-yl)-amide] 3-(3-chloro-2-fluoro-benzylamide)] | 30 |
| CC(=O)c1cn(CC(=O)N2C[C@H](F)[C@@H](OCCN(C)C)[C@H]2C(=O)NCc2cccc(Cl)c2F)c2ccccc12 [Example 634, (2S,3S,4S)-1-[2-(3-Acetyl-indol-1-yl)-acetyl]-3-(2-dimethylamino-ethoxy)-4-fluoro-pyrrolidine-2-carboxylic acid 3-chloro-2-fluoro-benzylamide formate] | 53 |
| NC(=O)n1cc(NC(=O)N2NCCC2C(=O)NCc2cccc(Cl)c2)c2ccccc21 (stereo not shown) [Example 434, Pyrazolidine-1,5-dicarboxylic acid 1-[(1-carbamoyl-1H-indol-3-yl)-amide]5-(3-chloro-benzylamide)] | 35 |
| CC(=O)c1cn(CC(=O)N2[C@@H]3CC[C@@H](C3)[C@H]2C(=O)NCc2cccc(Cl)c2F)c2ccccc12 [Example 512, (1R,3S,4S)-2-[2-(3-Acetyl-indol-1-yl)-acetyl]-2-aza-bicyclo[2.2.1]heptane-3-carboxylic acid 3-chloro-2-fluoro-benzylamide] | 411 |
| NC(=O)n1cc(NC(=O)N2C[C@@H]3C[C@@H]3[C@H]2C(=O)N[C@H](CO)c2cccc(Cl)c2F)c2ccccc21 [Example 207, (1S,2S,5R)-3-Azabicyclo[3.1.0]hexane-2,3-dicarboxylic acid 3-[(1-carbamoyl-1H-indol-3-yl)-amide] 2-{[(S)-1-(3-chloro-2-fluoro-phenyl)-2-hydroxy-ethyl]-amide}] | 321 |
| COC[C@@H](NC(=O)[C@@H]1[C@@H]2C[C@@H]2CN1C(=O)Nc1cn(C(N)=O)c2ccccc12)c1cccc(Cl)c1F [Example 231, (1R,2S,5S)-3-Aza-bicyclo[3.1.0]hexane-2,3-dicarboxylic acid 3-[(1-carbamoyl-1H-indol-3-yl)-amide] 2-{[(S)-1-(3-chloro-2-fluoro-phenyl)-2-methoxy-ethyl]-amide}] | 103 |
| NC(=O)n1cc(CC(=O)N2NCCC2C(=O)NCc2cccc(Cl)c2)c2ccccc21 (stereo not shown) [Example 469, 3-{2-[5-(3-Chloro-benzylcarbamoyl)-pyrazolidin-1-yl]-2-oxo-ethyl}-indole-1-carboxylic acid amide] | 3350 |
| CN(C)C(=O)c1cc(Cl)c(F)c(CNC(=O)[C@@H]2C[C@@H](F)CN2C(=O)Nc2cn(C(N)=O)c3ccccc23)c1 [Example 277, (2S,4R)-4-Fluoro-pyrrolidine-1,2-dicarboxylic acid 1-[(1-carbamoyl-1H-indol-3-yl)-amide] 2-(3-chloro-5-dimethylcarbamoyl-2-fluoro-benzylamide)] | 627 |
| NC(=O)n1cc(NC(=O)N2C[C@@H](N)C[C@H]2C(=O)NCc2cccc(F)c2)c2ccccc21 [Example 32, (2S,4S)-4-Amino-pyrrolidine-1,2-dicarboxylic acid 1-[(1-carbamoyl-1H-indol-3-yl)-amide] 2-(3-fluoro-benzylamide)] | 3350 |
| CC(=O)c1cn(CC(=O)N2CCCC[C@H]2C(=O)NCc2cccc(Cl)c2F)c2ccccc12 [Example 478, (S)-1-[2-(3-Acetyl-indol-1-yl)-acetyl]-piperidine-2-carboxylic acid 3-chloro-2-fluoro-benzylamide] | 258 |
| COC(=O)COc1ccc2c(c1)c(NC(=O)N1[C@@H]3C[C@@H]3C[C@H]1C(=O)NCc1cccc(Cl)c1F)cn2C(N)=O [Example 133, (1-carbamoyl-3-{[(1R,3S,5R)-3-(3-chloro-2-fluoro-benzylcarbamoyl)-2-azabicyclo[3.1.0]hexane-2-carbonyl]amino}-1H-indol-5-yloxy)-acetic acid methyl ester] | 6 |
| CC(=O)c1nn(CC(=O)N2[C@@H]3C[C@@H]3C[C@H]2C(=O)NC2(c3cccc(Cl)c3F)COC2)c2ncccc12 [Example 633, (1R,3S,5R)-2-[2-(3-Acetyl-pyrazolo[3,4-b]pyridin-1-yl)-acetyl]-2-aza-bicyclo [3.1.0]hexane-3-carboxylic acid [3-(3-chloro-2-fluoro-phenyl)-oxetan-3-yl]-amide] | 55 |
| CC(=O)c1cn(CC(=O)N2[C@@H]3C[C@@H]3C[C@H]2C(=O)NCc2cccc(Cl)c2F)c2ncccc12 [Example 483, (1R,3S,5R)-2-[2-(3-Acetyl-pyrrolo[2,3-b]pyridin-1-yl)-acetyl]-2-aza-bicyclo[3.1.0]hexane-3-carboxylic acid 3-chloro-2-fluoro-benzylamide] | 60 |
| CO[C@H]1[C@@H](C(=O)NC2(c3cccc(Cl)c3)CC2)N(C(=O)Cn2cc(C(C)=O)c3ccccc32)C[C@@H]1F [Example 572, (2S,3S,4S)-1-[2-(3-Acetyl-indol-1-yl)-acetyl]-4-fluoro-3-methoxy-pyrrolidine-2-carboxylic acid [1-(3-chloro-phenyl)-cyclopropyl]-amide] | 284 |
